{"source": "patent US9045505B2", "about": "“Nitric oxide donors” (University of Otago, priority 2006, dated 2015)", "key": {"[1]": {"test_system": "complex I", "conditions": "10 μM", "method": "(a) Effect of MitoSNAP on mitochondrial respiration. Heart mitochondria (1 mg protein/ml) were incubated in 1 ml KCl medium supplemented with 1 mM phosphate in an oxygen electrode with 5 mM glutamate and 5 mM malate, or succinate, and incubated with 10 μM MitoSNAP, 10 μM MitoNAP or carrier for 2 min (succinate) or 3 min (glutamate/malate), then 250 μM adenosine diphosphate (ADP) was added and the rate of respiration was measured. Respiration in the presence of MitoSNAP is expressed as a percentage of that with MitoNAP, and are means±sem from 3 separate mitochondrial preparations, each determined in triplicate; *p<0.05 by Student's paired t test. […] Bovine heart mitochondrial membranes (0.25 mg protein/ml) were incubated in 1 ml KCl medium in an O2 electrode at 37° C., and incubated with 75 μM MitoSNAP or MitoNAP, or ethanol carrier for 5 min in the presence or absence of rotenone, then 1 mM NADH or 10 mM succinate was added and the rate of respiration was measured. Data are expressed as respiration in the presence of MitoSNAP or MitoNAP as a percentage of the appropriate controls and are means±range of two separate experiments, each determined in triplicate. […] Then protein SNOs were labelled by maleimide-Cy3 and intact mitochondrial respiratory complexes were separated by BN-PAGE which was then scanned for Cy3 fluorescence. […]"}, "[2]": {"test_system": "mice", "experiment": "Cardiac ischemia-reperfusion injury in vivo (LAD occlusion)", "parameters": "species or system mouse", "conditions": "100 ng/kg into left ventricle 5 min prior to reperfusion, 30 min LAD occlusion, 24 h recovery", "procedure": "Male C57BL/6 mice (˜25 g) were purchased from the Jackson Laboratory and handled in accordance with the procedures of the University of Rochester Committee on Animal Research. All surgical procedures were sterile and performed as described previously. Briefly, analgesics (acetaminophen 0.75 mg/ml in drinking water) were administered 24 hr before, and during the perioperative period.\nFollowing anesthesia (Avertin, 2,2,2-tribromoethanol, […] IP) mice were intubated with a 20 gauge PE catheter which was connected to a rodent ventilator (Harvard MiniVent, 120 cycles/min., 0.3 ml tidal volume). A thoracotomy was performed and the left anterior descending coronary artery (LAD) was then ligated and occluded with a 9-0 proline suture for 30 min. MitoSNAP or MitoNAP (100 ng/kg) were dissolved in 0.9% NaCl saline (final volume 50 μl) and then administered 5 min prior to reperfusion into left ventricle (LV) using 30G½ needle. Reperfusion was initiated by removing the suture. The chest and skin were sutured closed, the endotracheal tube removed and the animal returned to its cage to recover. After 24 hrs. the animal was re-anesthetized, the LAD re-ligated, and Evans' blue dye (1.0% w/v, 1.5 ml) perfused via the LV. […] Slices were scanned and infarct/AR ratios determined with NIH ImageJ software."}, "[3]": {"test_system": "liver or heart mitochondria", "experiment": "Visualisation of S-nitrosated mitochondrial proteins by Cy3 maleimide labelling", "format": "biochemical, rat", "conditions": "10 μM MitoSNAP or 500 μM diamide, 5 min", "procedure": "FIG. 11 is a series of graphs showing S-nitrosation of mitochondrial thiols by MitoSNAP. (a) Time course of S-nitrosation of mitochondrial proteins by MitoSNAP. Liver mitochondria (1 mg protein) were incubated in 1 ml KCl buffer supplemented with rotenone and succinate in the presence of 5 μM MitoSNAP. At various times mitochondria were treated with 10 mM N-ethylmaleimide (NEM), isolated by centrifugation and the S-nitrosothiol content assessed. Data are of a typical experiment showing means±range of duplicate samples for each time point, each measured in duplicate. The experiment was repeated twice. (b) S-nitrosation of mitochondrial proteins by different concentrations of MitoSNAP and SNAP. Aliquots of liver mitochondria were incubated with the indicated concentrations of MitoSNAP or SNAP for […] in the presence or absence of 500 nM FCCP and then assessed for S-nitrosothiol content as in (a). […] Data are of a typical experiment showing means±range of duplicate samples for each time point, each measured in duplicate. […] After further incubation for 5 min at 37° C. in the dark, the medium was removed and the content of S-nitrosated proteins was measured. […] S-nitrosated thiols were then selectively tagged with Cy3 maleimide and protein (10 μg) was then separated on a 12.5% SDS PAGE gel which was stained with coomassie blue and scanned for Cy3 fluorescence. […]"}}}
{"smiles": "CC(=O)NC(C(=O)NCCCCC[P+](c1ccccc1)(c1ccccc1)c1ccccc1)C(C)(C)SN=O.CS(=O)(=O)[O-]", "note": "(stereo not shown) [MitoSNAP, [5-(2-acetylamino-3-methyl-3-nitrosothio-butyrylamino)-penty1]-triphenylphosphonium methanesulfonate]", "values": [{"measurement": "inhibition of respiration relative to MitoNAP", "setting": "[1]; glutamate/malate", "value": "about 30%"}, {"measurement": "effect on respiration", "setting": "[1]; succinate", "value": "very little effect"}, {"measurement": "protection against heart damage (infarct/area at risk)", "setting": "[2]", "value": "Protects Against Cardiac Ischemia-Reperfusion Injury"}, {"measurement": "Cy3 labelling of S-nitrosated proteins", "setting": "[3]", "value": "S-nitrosation of a large number of different proteins"}]}
